Values of other authors in patent US7079956B2, “Crystal structure of antibiotics bound to the 30S ribosome and its use” (Medical Research Council, priority 2000, dated 2006).

Details: literature values: Ross et al. 1998 (tetracycline), Cohen et al. 1969 (pactamycin), Cabanas et al. 1978 (hygromycin B)

Structure (SMILES) | minimum inhibitory concentration
CN[C@H]1C[C@@H](N)[C@H](O)[C@@H](O[C@@H]2O[C@H](CO)[C@H](O)[C@@H]3OC4(O[C@H]23)O[C@H]([C@@H](N)CO)[C@H](O)[C@H](O)[C@H]4O)[C@@H]1O (stereo partly drawn) [hygromycin B, O-6-amino-6-deoxy-L-glycero-D-galacto-heptopyranosylidene-(12-3)-O-D-talopyranosyl-(15)-2-deoxy-N3-methyl-D-streptamine] | around 6 μM
CC(=O)c1cccc(NC2C(N)C(NC(=O)N(C)C)(C(C)O)C(C)(O)C2(O)COC(=O)c2c(C)cccc2O)c1 (centres unmarked) [pactamycin, 2-hydroxy-6-methylbenzoic acid [5-[(3-acetylphenyl)amino]-4-amino-3-[[(dimethylamino)-carbonyl]amino]-1,2-dihydroxy-3-(1-hydroxy-ethyl)-2-methylcyclopentyl]methyl ester] | 8 to 80 µM
